Structures can show the parent of a compound that is named as a salt. Where two headings read alike, the source gives them in different places.
Assays:
HCT-8 cells = assay: in vitro proliferating human colon adenocarcinoma (HCA) cell screen; assay type: cell-based
Description: One test protocol is the in vitro proliferating human colon adenocarcinoma (HCA) cell screen. In this test, HCT-8 cells (HCA cell line received from Yale University) are trypsinized using trypsin-EDTA. A single cell suspension is achieved by passing the cells through a 26 gauge needle with a 20 cc syringe. A cell suspension is prepared using RPMI 1640 + 10% FCS + 50) g/ml gentamicin sulfate with a cell concentration of approximately 30,000 cells/ml. The cell suspension is dispensed in Linbro 24-well plates; 1 ml/well. The plates are incubated for approximately 48 hours at 37°C in a 5% C02 atmosphere. At this time test compounds are added in the appropriate concentration. Five µl of the 200 µg/ml stock solution is added to each well in primary test. Ten µl of the appropirate dilution is added to each well for a titration test. The plates are re-incubated an additional 60 to 65 hours at 37°C in a 5% C02 atmosphere. The cells are lysed using a mix of cationic surfactant, glacial acetic acid, and sodium chloride. Two ml of the lysed cell suspension from each well is added to 8 ml of diluent. The number of nuclei is determined using a Coulter counter (ZBI model), and a percent growth for each drug concentration is calculated. From this, an ID50 molar concentration of a compound (that results in 50% inhibition of growth) is determined.

[1] = system: Aerobacter aerogenes 0126; assay: in vitro antibacterial/antifungal (ABF) agar-disk diffusion test; assay type: cell-based; conditions: Klebsiella aerogenes, 0.1 mg/ml, read-out: ABF Zone Diameter (cont. in mg/ml) A. Aero-genes
Description: (§1) Still another test protocol is the in vitro antibacterial/antifungal (ABF) test. Compounds are tested for antimicrobial activity in an agar-disk diffusion assay, a standard microbiological technique for testing antibiotics'. After incubation of each culture with a test compound, a zone of inhibition is determined. The zone diameter (mm) of active compounds ranges from a minimum of 13.5 mm to as high as 60 mm, with a greater diameter reflecting higher activity. For convenience, values are reported for two gram-negative bacteria (Aerobacter aerogenes 0126 and Escherichia coli 04863), two gram-positive bacteria (Bacillus subtilis 04555 and Streptococcus faecalis 05045 utilizing AM-09 medium), and one mycelial fungus (Penicillium avellaneum M2988).

Bacillus subtilis 04555 = assay: as above; assay type: cell-based; conditions: 0.1 mg/ml, read-out: ABF Zone Diameter (cont. in mg/ml) B. Sub-tilis
Description: as §1

[2] = system: Penicillium avellaneum M2988; assay: as above; assay type: cell-based; conditions: Hamigera avellanea, 3 mg/ml, read-out: ABF Zone Diameter (cont. in mg/ml) P. Avell-aneum
Description: as §1

Escherichia coli 04863 = assay: as above; assay type: cell-based; conditions: 0.1 mg/ml, read-out: ABF Zone Diameter (cont. in mg/ml) E. Coli
Description: as §1

[3] = system: Streptococcus faecalis 05045; assay: as above; assay type: cell-based; conditions: Enterococcus faecalis, AM-09 medium, 3 mg/ml, read-out: ABF Zone Diameter (cont. in mg/ml) S. Fae-calis
Description: as §1

L1210 cells = assay: L1210 murine leukemia cell growth inhibition in vitro; assay type: cell-based; conditions: Mus musculus, 72 h
Description: Another test protocol uses L1210 cells, a murine leukemia cell line, grown in RPMI 1640 supplemented with 5% fetal bovine serum and gentamicin ([…]). Drug dilutions are prepared in the appropriate solvent and 20 µl of each dilution are added to 24-well Linbro tissue culture plates, followed by the addition of 2.0 ml of cell suspension containing 3 x 10^4 cells per ml. Solvent and medium controls are included in each test. After incubation at 37°C forthree days in 5% C02, the contents of each well are removed and the cells counted in a ZBI Coulter counter. Percent growth are calculated relative to the controls and the levels of drug activity are expressed as ID50 in moles per liter.

[4] = system: lymphocytic leukemia P388; assay: in vivo lymphocytic leukemia P388 test; design: species or system mice; conditions: Mus musculus, P388, ip, 120 h, read-out: P388 in vivo T/C × 100; for response vs control in vivo at 12.5 mg/kg: Dose 12.50 mg/kg intraperitoneally once daily for five days; for response vs control in vivo at 25 mg/kg: Dose 25.00 mg/kg intraperitoneally once daily for five days; for response vs control in vivo at 100 mg/kg: Dose 100.00 mg/kg intraperitoneally once daily for five days; for response vs control in vivo at 3.12 mg/kg: Dose 3.12 mg/kg intraperitoneally once daily for five days; for response vs control in vivo at 6.25 mg/kg: Dose 6.25 mg/kg intraperitoneally once daily for five days; for response vs control in vivo at 50 mg/kg: Dose 50.00 mg/kg intraperitoneally once daily for five days
Description: Another test protocol is the in vivo lymphocytic leukemia P388 test. The animals used are either male or female CD2F, mice. There are six or seven animals per test group. The tumor transplant is by intraperitoneal injection of dilute ascitic fluid containing cells of lymphocytic leukemia P388. The test compounds are administered intraperitoneally once daily for five consecutive days at various doses following tumor inoculation. The animals are weighed and survivors are recorded on a regular basis for 30 days. A compound is designated "toxic" if, at a given dose, all animals died prior to four days after the first injection of drug. A ratio of survival time for treated (T)/control (C) animals is calculated. A criterion for efficacy is a ratio T/C times 100 greater than or equal to 125. See Cancer Chemotherapy Reports, Part 3, 3; 1 (1972) for a comprehensive discussion of the protocol.

[5] = Table 1, 60 to 65 hours with compound, 50% inhibition of growth, read-out: HCA—3 in vitro ID50
[6] = Table 2, three days incubation, read-out: L1210 in vitro IC50
[7] = Table 1, three days incubation, 50% inhibition of growth, read-out: L1210 in vitro ID50
[8] = Table 2, 60 to 65 hours with compound, read-out: HCA—3 in vitro IC50

In the case of NCCn1nc2c3c(c([N+](=O)[O-])ccc31)Sc1ccccc1-2 [CH2CH2NH2 / NO2 / 199—203, 5-Nitro-2H[1]benzothiopyrano[4,3,2-cd]indazole-2-ethanamine], the IC50 (HCT-8 cells; [5]) is reported as 0.2 µM, the zone of inhibition at 100 µg/mL [1] is reported as 18 mm and the zone of inhibition at 100 µg/mL (Bacillus subtilis 04555) is reported as 17 mm. For the same compound, the zone of inhibition at 3000 µg/mL [2] was 0 mm, the zone of inhibition at 100 µg/mL (Escherichia coli 04863) was 15 mm and the zone of inhibition at 3000 µg/mL [3] was 0 mm.

CCN(CC)CCn1nc2c3c(c([N+](=O)[O-])ccc31)Sc1ccc(OC)cc1-2 [CH2CH2NHCH2CH2OH / NO2 / C20H22N4O3S, N,N-Diethyl-9-methoxy-5-nitro-2H[1]benzothiopyrano[4,3,2-cd]indazole-2-ethanamine] showed an IC50 (L1210 cells; [6]) of 0.64 µM, a response vs control in vivo at 12.5 mg/kg [4] of 142% and a response vs control in vivo at 25 mg/kg [4] of 209%.

For CN(C)CCCn1nc2c3c(c([N+](=O)[O-])ccc31)Sc1ccccc1-2 [CH2CH2CH2N(CH3)2 / NO2, N,N dimethyl-5-nitro-2H[1]benzothiopyrano[4,3,2-cd]indazole-2-propanamine], the IC50 (L1210 cells; [7]) was 0.19 µM, the response vs control in vivo at 25 mg/kg [4] was 121% and the response vs control in vivo at 100 mg/kg [4] was 141%. The IC50 (HCT-8 cells; [5]) was 0.21 µM.

Compound CCN(CC)CCn1nc2c3c(c([N+](=O)[O-])ccc31)Sc1c(OC)ccc(O)c1-2 [CH2CH2N(C2H5)2 / NO2 / 7-OCH3, 10-OH, 2-[2-(diethylamino)-ethyl]-7-methoxy-5-nitro-2H[1]benzothiopyrano[4,3,2-cd]indazol-10-ol] has an IC50 (L1210 cells; [6]) of 1 µM and an IC50 (HCT-8 cells; [8]) of 0.42 µM.

With CCN(CC)CCn1nc2c3c(c(NCCNCCO)ccc31)Sc1ccc(OC)cc1-2 [2-[[2-[[2-(2-(Diethylamino)ethyl]-9-methoxy-2H[1]benzothiopyrano[4,3,2-cd]indazol-5-yl]amino]ethyl]amino]ethanol] the IC50 (L1210 cells; [6]) was 0.2 µM, the response vs control in vivo at 25 mg/kg [4] was 177% and the IC50 (HCT-8 cells; [8]) was 0.23 µM.

CCN(CC)CCn1nc2c3c(c(NCCCN)ccc31)Sc1ccccc1-2 [CH2CH2N(C2H5)2 / NHCH2CH2CH2NH2] showed an IC50 (L1210 cells; [7]) of 0.29 µM, a response vs control in vivo at 3.12 mg/kg [4] of 132% and a response vs control in vivo at 6.25 mg/kg [4] of 142%. It also gave a response vs control in vivo at 12.5 mg/kg [4] of 154%, a response vs control in vivo at 25 mg/kg [4] of 169% and an IC50 (HCT-8 cells; [5]) of 0.88 µM.

CCN(CC)CCn1nc2c3c(c([N+](=O)[O-])ccc31)Sc1c(O)ccc(O)c1-2 [CH2CH2N(C2H5)2 / NO2 / 7,10-(OH)2] showed an IC50 (L1210 cells; [6]) of 1.7 µM.

CCN(CC)CCn1nc2c3c(c(N)ccc31)Sc1ccc(OC)cc1-2 [CH2CH2NHCH2CH2OH / NH2 / 9-OCH3, 5-Amino-N,N-diethyl-9-methoxy-2H[1]benzothiopyrano[4,3,2-cd]indazole-2-ethanamine] was tested, and the IC50 (L1210 cells; [6]) was 1.6 µM and the response vs control in vivo at 50 mg/kg [4] was 154%.

With CCN(CC)CCNc1ccc2c3c(nn2CCNCCO)-c2ccccc2Sc13 [CH2CH2NHCH2CH2OH / NHCH2CH2N(C2H5)2, 2-[[2-[5-[[2-(Diethylamino)ethyl]amino]-2H[1]benzothiopyrano[4,3,2-cd]indazol-2-yl]ethyl]amino]ethanol] the IC50 (L1210 cells; [7]) was 0.24 µM, the response vs control in vivo at 3.12 mg/kg [4] was 134% and the response vs control in vivo at 6.25 mg/kg [4] was 137%. For the same compound, the response vs control in vivo at 12.5 mg/kg [4] was 135%, the response vs control in vivo at 25 mg/kg [4] was 147% and the IC50 (HCT-8 cells; [5]) was 0.45 µM.

For NCCn1nc2c3c(c([N+](=O)[O-])ccc31)Sc1ccccc1-2 [CH2CH2NH2 / NO2 / >300], the response vs control in vivo at 12.5 mg/kg [4] was 136% and the response vs control in vivo at 25 mg/kg [4] was 187%.

For CN(C)CCCn1nc2c3c(c(NCCN)ccc31)Sc1ccccc1-2 [(CH2)3N(CH3)2 / NHCH2CH2NH2, N-[2-[3-(dimethylamino)propyl]-2H[1]benzothiopyrano[4,3,2-cd]indazol-5-yl]-1,2-ethanediamine], the IC50 (L1210 cells; [7]) was 0.029 µM, the response vs control in vivo at 6.25 mg/kg [4] was 185% and the response vs control in vivo at 12.5 mg/kg [4] was 298%. For the same compound, the IC50 (HCT-8 cells; [5]) was 0.13 µM.

With CCN(CC)CCn1nc2c3c(c(NCCN4CCOC4=O)ccc31)Sc1ccc(OC)cc1-2 [CH2CH2N(C2H5)2 / [drawing] / 9-OCH3, 3-[2-[[2-[2-(Diethylamino)ethyl]-9-methoxy-2H[1]benzothiopyrano[4,3,2-cd]indazol-5-yl]amino]ethyl]-2-oxazolidinone] the response vs control in vivo at 100 mg/kg [4] was 220% and the IC50 (HCT-8 cells; [8]) was 1 µM.

Work on CCN(CC)CCn1nc2c3c(c(NCCN)ccc31)Sc1ccc(OC)cc1-2 [CH2CH2N(C2H5)2 / NHCH2CH2NH2 / 9-OCH3] yielded an IC50 (L1210 cells; [6]) of 0.21 µM, a response vs control in vivo at 12.5 mg/kg [4] of 177% and an IC50 (HCT-8 cells; [8]) of 0.29 µM.

CCNCCn1nc2c3c(c(N)ccc31)Sc1ccccc1-2 [CH2CH2NHC2H5 / NO2 / C17H18N4S·2HCl] showed an IC50 (L1210 cells; [7]) of 0.071 µM, a response vs control in vivo at 12.5 mg/kg [4] of 188% and an IC50 (HCT-8 cells; [5]) of 0.3 µM.

Compound CCN(CC)CCn1nc2c3c(c(N)ccc31)Sc1ccc(O)cc1-2 [CH2CH2N(C2H5)2 / NH2 / 9-OH, 5-Amino-2-[2-(diethylamino)ethyl]-2H[1]benzothiopyrano[4,3,2-cd]indazol-9-ol] has an IC50 (L1210 cells; [6]) of 0.012 µM, a response vs control in vivo at 6.25 mg/kg [4] of 238% and an IC50 (HCT-8 cells; [8]) of 0.028 µM.

For CCN(CC)CCn1nc2c3c(c([N+](=O)[O-])ccc31)Sc1c(OC)ccc(OC)c1-2 [CH2CH2N(C2H5)2 / NO2 / 7,10-(OCH3)2, N,N-Diethyl-7,10-dimethoxy-5-nitro-2H[1]benzothiopyrano[4,3,2-cd]indazol-2-ethanamine], the IC50 (L1210 cells; [6]) was 1.3 µM and the IC50 (HCT-8 cells; [8]) was 0.5 µM.

With CCN(CC)CCn1nc2c3c(c(NCCN4CCOC4=O)ccc31)Sc1ccc(O)cc1-2 [CH2CH2N(C2H5)2 / [drawing] / 9-OH, 3-[2-[[2-[2-(diethylamino)ethyl]-9-hydroxy-2H[1]benzothiopyrano[4,3,2-cd]indazol-5-yl]amino]ethyl]-2-oxazolidinone] the IC50 (L1210 cells; [6]) was 0.0055 µM, the response vs control in vivo at 12.5 mg/kg [4] was 175% and the IC50 (HCT-8 cells; [8]) was 0.024 µM.

Compound CCN(CC)CCn1nc2c3c(c(NC(=O)CCl)ccc31)Sc1ccccc1-2 [CH2CH2N(C2H5)2 / NHCOCH2Cl, 2-Chloro-N-[2-[2-(diethylamino)ethyl]-2H[1]benzothiopyrano[4,3,2-cd]indazol-5-yl]acetamide] has an IC50 (L1210 cells; [7]) of 0.19 µM, a response vs control in vivo at 25 mg/kg [4] of 124% and a response vs control in vivo at 50 mg/kg [4] of 165%. The IC50 (HCT-8 cells; [5]) was 0.38 µM.

CCNCCn1nc2c3c(c([N+](=O)[O-])ccc31)Sc1ccccc1-2 [CH2CH2NHC2H5 / NO2 / C17H16N4O2S·HCl] gave an IC50 (L1210 cells; [7]) of 0.024 µM, a response vs control in vivo at 12.5 mg/kg [4] of 187% and an IC50 (HCT-8 cells; [5]) of 0.14 µM.

— patent EP0114002B1, “Benzothiopyrano(4,3,2,-cd)indazoles, their pharmaceutical compositions and methods for their production” (WARNER-LAMBERT COMPANY, priority 1983, dated 1984)
